Measured values as given in patent publication US10300052B2, “Methods for increasing CFTR activity” (THE UAB RESEARCH FOUNDATION, priority 2012, dated 2019).

Assays:
WT-CFTR = target: T1, WT-CFTR (Homo sapiens, UniProt P13569); experiment: Short-circuit current (Isc) in Ussing chambers, CFBE41o- cells with stable WT-CFTR expression; assay type: cell-based; details: ivacaftor 10 μM after amiloride 100 μM and forskolin 100 nM, Cl- secretory gradient; CFBE41o- with stable WT-CFTR (FIG. 1A)
T1 construct: expressed in transfected cells
Method: CFBE41o-cells complemented by stable expression of WT-CFTR (by a lentivirus promoter) are shown in comparison to CFBE41o-cells without WT CFTR complementation (parental cells). *P<0.05, **P<0.005, n=5/condition.
The CFTR potentiator ivacaftor was chosen as an exemplary CFTR activator. The activity of ivacaftor was examined in WT-CFTR expressing cells.
Short-circuit current (Isc) was measured under voltage clamp conditions using MC8 voltage clamps and P2300 Ussing chambers (Physiologic Instruments, San Diego, Calif.) as previously described (2). Monolayers were initially bathed on both sides with identical Ringer's solutions containing (in mM) 115 NaCl, 25 NaHCO3, 2.4 KH2PO4, 1.24 K2HPO4, 1.2 CaCl2, 1.2 MgC2, 10 D-glucose (pH 7.4). Bath solutions were vigorously stirred and gassed with 95%02:5% CO2. Short-circuit current measurements were obtained using an epithelial voltage clamp (Physiologic Instruments). A one-second three-mV pulse was imposed every 10 seconds to monitor resistance calculated using Ohm's law. Where indicated, the mucosal bathing solution was changed to a low Cl-solution containing 1.2 NaCl and 115 Na+ gluconate, and all other components as above. Amiloride (100 μM) was added to block residual Na+ current, followed by the agonists forskolin, ivacaftor, and ATP as indicated (minimum five-min observation at each concentration). […]

CFTR = target: T2, CFTR (Homo sapiens, UniProt P13569); experiment: Short-circuit current (Isc) in primary non-CF human bronchial epithelial (HBE) cells; assay type: cell-based; details: ivacaftor 10 μM after pre-stimulation with 100 nM forskolin, compared to forskolin alone (FIG. 1B)
T2 construct: from tissue; host or cells: normal human trachea/bronchus from donor explant organs
Method: In primary non-CF human bronchial epithelial (HBE) cells, ivacaftor also augmented CFTR-dependent anion transport activity following pre-stimulation with 100 nM forskolin, a dose chosen to induce cAMP levels matching CSE-exposed cells, increasing CFTR-dependent short-circuit current (Isc) compared to that stimulated by forskolin alone (FIG. 1B).
Primary human bronchial epithelial (HBE) cells were derived from lung explants after written informed consent was obtained from CF and non-CF subjects with confirmed CFTR genetics by methods described previously. Briefly, tissues were debrided immediately after surgical resection, washed twice in Minimum Essential Media (MEM) with 0.5 mg/ml DTT (Sigma-Aldrich, St. Louis, Mo.) and 25 U/ml DNAse I (Roche, Basel, Switzerland), and then placed in dissociation media containing MEM, 2.5 U/ml DNAse I, 100 μg/ml ceftazidime, 80 μg/ml tobramycin, 1.25 μg/ml amphotericin B, and 4.4 U/ml pronase (Sigma-Aldrich) for 24-36 h at 4° C. […]
Short-circuit current (Isc) was measured under voltage clamp conditions using MC8 voltage clamps and P2300 Ussing chambers (Physiologic Instruments, San Diego, Calif.) as previously described (2). […] A one-second three-mV pulse was imposed every 10 seconds to monitor resistance calculated using Ohm's law. […]

T1 sequence (P13569 whole entry): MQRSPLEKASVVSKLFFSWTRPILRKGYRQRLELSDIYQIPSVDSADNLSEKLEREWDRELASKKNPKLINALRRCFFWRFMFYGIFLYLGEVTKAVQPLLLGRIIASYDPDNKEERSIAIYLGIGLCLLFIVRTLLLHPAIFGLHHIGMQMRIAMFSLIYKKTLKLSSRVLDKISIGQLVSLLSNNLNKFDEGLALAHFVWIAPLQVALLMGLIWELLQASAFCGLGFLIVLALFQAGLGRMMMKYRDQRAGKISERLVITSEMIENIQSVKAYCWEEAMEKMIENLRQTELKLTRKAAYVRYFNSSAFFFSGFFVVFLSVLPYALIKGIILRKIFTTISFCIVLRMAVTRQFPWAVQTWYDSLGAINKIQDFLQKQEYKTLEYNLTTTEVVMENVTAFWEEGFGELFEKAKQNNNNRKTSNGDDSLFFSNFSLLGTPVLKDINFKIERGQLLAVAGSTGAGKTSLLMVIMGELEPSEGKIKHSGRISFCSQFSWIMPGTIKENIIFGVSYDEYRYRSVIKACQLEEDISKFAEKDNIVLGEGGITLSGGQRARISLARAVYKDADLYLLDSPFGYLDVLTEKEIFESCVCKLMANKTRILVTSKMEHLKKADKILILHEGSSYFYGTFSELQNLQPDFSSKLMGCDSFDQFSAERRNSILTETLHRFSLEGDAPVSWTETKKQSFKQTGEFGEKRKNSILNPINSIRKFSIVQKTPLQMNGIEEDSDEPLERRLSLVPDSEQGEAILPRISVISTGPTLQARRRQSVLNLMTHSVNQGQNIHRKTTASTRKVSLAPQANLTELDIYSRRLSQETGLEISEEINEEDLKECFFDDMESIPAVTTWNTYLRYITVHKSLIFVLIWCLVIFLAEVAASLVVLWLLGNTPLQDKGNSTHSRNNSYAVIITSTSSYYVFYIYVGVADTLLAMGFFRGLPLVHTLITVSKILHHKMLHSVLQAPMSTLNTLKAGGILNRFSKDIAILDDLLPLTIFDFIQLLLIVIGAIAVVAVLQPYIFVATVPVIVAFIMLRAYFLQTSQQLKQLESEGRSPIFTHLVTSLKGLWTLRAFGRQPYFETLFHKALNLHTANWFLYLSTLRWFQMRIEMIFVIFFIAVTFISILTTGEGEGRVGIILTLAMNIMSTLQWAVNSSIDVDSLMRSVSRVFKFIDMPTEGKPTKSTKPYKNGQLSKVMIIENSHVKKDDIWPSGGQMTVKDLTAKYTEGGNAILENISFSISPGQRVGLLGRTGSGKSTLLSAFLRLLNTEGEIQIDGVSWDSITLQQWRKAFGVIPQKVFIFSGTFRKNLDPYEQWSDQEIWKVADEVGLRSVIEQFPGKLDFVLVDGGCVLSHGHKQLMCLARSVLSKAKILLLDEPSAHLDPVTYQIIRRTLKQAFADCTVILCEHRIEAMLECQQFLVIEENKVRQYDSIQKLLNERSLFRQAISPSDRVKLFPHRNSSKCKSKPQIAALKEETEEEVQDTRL
T2 sequence (P13569 whole entry): as above

anion transport (Isc) (WT-CFTR): robust increases
CFTR-dependent anion transport activity (short-circuit current, Isc) (CFTR): augmented
Compound: CC(C)(C)c1cc(C(C)(C)C)c(NC(=O)c2c[nH]c3ccccc3c2=O)cc1O [ivacaftor]
